Test results taken from patent publication US20210292277A1 (priority 2020, published 2021).
Values joined by “and” are separate entries in the source; they are usually repeats but may differ in a detail not shown here. Identical values can stand only once.

Experiments:
[1] = tested on: COVID-19/SARS-CoV-2 virus; assay type: cell-based
SARS CoV-2 = experiment: Antiviral efficacy of GC376 and REMDESIVIR in golden Syrian hamsters challenged intranasally with SARS-CoV-2, IP; assay type: in vivo, golden Syrian female hamsters; details: for body weights: IP injection for eight days, versus control animals with SARS-CoV-2 alone; for lung PFU: lung samples, days 4 and 14
Text: The animals were sacrificed at days 4, 8, or 14 following initiation of the experiment and the various tissues were then collected for analysis. Detailed experimental design and experimental parameters can be found in FIG. 9A, FIG. 9B, and FIG. 10.

[2] = tested on: 17 coronavirus proteases from human and animal coronaviruses; assay type: cell-based
[3] = tested on: SARS-CoV-2 viral infection; experiment: Treatment of a patient suffering from COVID-19; assay type: in vivo; details: human patient, intravenous, subcutaneous, or oral, daily for 21 days
SARS-CoV-2 [4] = experiment: Antiviral efficacy in hamsters challenged intranasally with SARS-CoV-2, S.C. GC376; assay type: in vivo, hamster; details: for trachea PFU: trachea samples
Text: The hamsters were sacrificed and various tissues were collected for analysis.

SARS-CoV-2 virus = experiment: Prophylactic treatment of a patient susceptible to COVID-19; assay type: in vivo; details: human patient at risk, daily for 21 days beginning one week prior to possible exposure
SARS-CoV-2 [5] = experiment: microbe, parasite or virus in culture; assay type: cell-based; details: Severe acute respiratory syndrome coronavirus 2; SARS-CoV-2 infected cells, dose response FIG. 3; read-out: EC50 against SARS-CoV-2
[6] = CC50 in the structure table of GC543 and GC583 (no method given); assay type: cell-based; details: cells not given

CC(C)C[C@H](NC(=O)OCc1ccccc1)C(=O)N[C@@H](C[C@@H]1CCNC1=O)C(O)S(=O)(=O)[O-].[Na+] (stereo partly drawn) [GC376]
lowering of virus titer ([1]; 5 μM GC376 versus virus solution without GC376): approximately 15 fold | PFU/ml, average ([1]; virus solution with 5 μM GC376, average of three replicate plates): 2.1×10^6 pfu/ml | PFU/ml, each replicate plate ([1]; virus solution with 5 μM GC376, individual plates): 2.75×10^6 pfu/ml and 2.25×10^6 pfu/ml and 1.30×10^6 pfu/ml | body weights (SARS CoV-2): maintained similar body weights to the control animals | lung PFU (SARS CoV-2): reduction of PFU at days 4 and 14 | activity against coronavirus proteases [2]: activity across all coronaviruses tested, including SARS-CoV-2 | outcome after 21 days of treatment [3]: recovered from the SARS-CoV-2 infection | body weight at 10 mg/kg/day and 25 mg/kg/day (SARS-CoV-2 [4]; 10 mg/kg/day and 25 mg/kg/day, versus infected controls without GC376): appeared to lose more weight initially, but by the eighth day following initiation of the experiment had a body weight that was similar to the control animals | lung PFU versus control (SARS-CoV-2 [4]; 100 mg/kg/day cohort): had fewer PFUs in their lungs than the control animal, although two animals had more PFUs than the control | body weights of individual hamsters (SARS-CoV-2 [4]; each individual hamster, days 0-8, any dose): trend show for each animal to regain its normal body weight | trachea PFU (SARS-CoV-2 [4]; 100 mg/kg/day group): did show noticeable PFU formation from trachea samples | trachea PFU (SARS-CoV-2 [4]; all groups): most of the animals did not show PFUs from samples taken from the trachea | outcome after prophylactic treatment (SARS-CoV-2 virus): not have developed COVID-19 or a SARS-CoV-2 infection | EC50 (SARS-CoV-2 [5]): ~0.81 µM

O=C[C@@H](C[C@@H]1CCNC1=O)NC(=O)[C@H](CC1CCCCC1)NC(=O)OCc1ccccc1 [GC543]
CC50 [6]: > 100 µM

O=C[C@@H](C[C@@H]1CCNC1=O)NC(=O)[C@H](CC1CCCCC1)NC(=O)OCc1cccc(Cl)c1 [GC583]
CC50 [6]: > 100 µM

CCC(CC)COC(=O)[C@H](C)N[P@](=O)(OC[C@H]1O[C@@](C#N)(c2ccc3c(N)ncnn23)[C@H](O)[C@@H]1O)Oc1ccccc1 [reference compound]
body weights (SARS CoV-2): maintained similar body weights to the control animals | lung PFU (SARS CoV-2): reduction of PFU at days 4 and 14
